Measured values as given in patent US9302999B2, “Substituted triazoles as herbicides” (E. I. DU PONT DE NEMOURS AND COMPANY, priority 2012, dated 2016).

Legend:
Format in all cases: in vivo
[1] = test system: rice (Oryza sativa); test: Test C flooded paddy test: rice; settings: scale 0 to 100 (0 no effect, 100 complete control)
Summary of the method: (§1)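 Plants at 2-leaf stage in pots flooded 3 cm above soil; compounds applied directly into the paddy water, depth maintained. Visual rating against controls after 13–15 days in greenhouse, scale 0 (no effect) to 100 (complete control).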

[2] = test system: corn (Zea mays); test: Test A pre-/postemergence: corn
Summary of the method: (§2)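 Whole-plant greenhouse assay in loam/sand. Preemergence directed soil spray plus simultaneous postemergence spray (one- to two-leaf stage, 2–10 cm). Rated visually ~10 days later, 0 = no effect, 100 = complete control.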

[3] = test system: pigweed (Amaranthus retroflexus); test: Test A pre-/postemergence: pigweed
Summary of the method: as §2

[4] = test system: morningglory (Ipomoea spp.); test: Test A pre-/postemergence: morningglory
Summary of the method: as §2

[5] = test system: sedge, umbrella (small-flower umbrella sedge, Cyperus difformis); test: Test C flooded paddy test: sedge, umbrella; settings: scale 0 to 100 (0 no effect, 100 complete control)
Summary of the method: as §1

[6] = test system: velvetleaf (Abutilon theophrasti); test: Test A pre-/postemergence: velvetleaf
Summary of the method: as §2

[7] = test system: crabgrass, large (large crabgrass, Digitaria sanguinalis); test: Test A pre-/postemergence: crabgrass, large
Summary of the method: as §2

[8] = test system: barnyardgrass (Echinochloa crus-galli); test: Test C flooded paddy test: barnyardgrass; settings: scale 0 to 100 (0 no effect, 100 complete control)
Summary of the method: as §1

[9] = test system: wheat (Triticum aestivum); test: Test A pre-/postemergence: wheat
Summary of the method: as §2

[10] = test system: foxtail, giant (giant foxtail, Setaria faberii); test: Test A pre-/postemergence: foxtail, giant
Summary of the method: as §2

[11] = test system: ducksalad (Heteranthera limosa); test: Test C flooded paddy test: ducksalad; settings: scale 0 to 100 (0 no effect, 100 complete control)
Summary of the method: as §1

[12] = test system: barnyardgrass (Echinochloa crus-galli); test: Test A pre-/postemergence: barnyardgrass
Summary of the method: as §2

[13] = Flood (flooded paddy test), 125 g ai/ha, visual rating after 13 to 15 days
[14] = Flood (flooded paddy test), 250 g ai/ha, visual rating after 13 to 15 days
[15] = Postemergence, 125 g ai/ha, 0 to 100 scale, 0 is no effect, 100 is complete control
[16] = Postemergence, 500 g ai/ha, visual rating on 0 to 100 scale (0 no effect, 100 complete control), approximately ten days
[17] = Preemergence, 125 g ai/ha, 0 to 100 scale (0 no effect, 100 complete control)
[18] = Preemergence, 500 g ai/ha, 0 to 100 scale, 0 is no effect, 100 is complete control
[19] = Preemergence, 125 g ai/ha, 0 to 100 scale where 0 is no effect and 100 is complete control
[20] = Postemergence, 1000 g ai/ha, visual rating on 0 to 100 scale (0 no effect, 100 complete control), approximately ten days
[21] = Preemergence, 1000 g ai/ha, 0 to 100 scale, 0 is no effect, 100 is complete control

Structure (SMILES): Cc1nn(-c2ccc(F)cc2)nc1Oc1cccc(C(F)(F)F)c1 [Compound 98]
- Plant response rating, Rice [1, 13]: 30
- Plant response rating, Rice [1, 14]: 40
- Plant response rating, Rice ([1]; Flood, 31 g ai/ha): 0
- Plant response rating, Rice ([1]; Flood, 62 g ai/ha): 0
- Corn plant response rating [2, 15]: 20
- Corn plant response rating [2, 16]: 30
- Plant response rating, Corn [2, 17]: 0
- Plant response rating, Corn [2, 18]: 10
- Pigweed plant response rating [3, 15]: 100
- Pigweed plant response rating [3, 16]: 100
- Plant response rating, Pigweed [3, 19]: 60
- Plant response rating, Pigweed [3, 18]: 100
- Morningglory plant response rating [4, 15]: 80
- Morningglory plant response rating [4, 16]: 100
- Plant response rating, Morningglory [4, 19]: 0
- Plant response rating, Morningglory [4, 18]: 10
- Plant response rating, Sedge, Umbrella [5, 13]: 40
- Plant response rating, Sedge, Umbrella [5, 14]: 80
- Plant response rating, Sedge, Umbrella ([5]; Flood, 31 g ai/ha): 0
- Plant response rating, Sedge, Umbrella ([5]; Flood, 62 g ai/ha): 0
- Velvetleaf plant response rating [6, 15]: 60
- Velvetleaf plant response rating [6, 16]: 80
- Plant response rating, Velvetleaf [6, 19]: 0
- Plant response rating, Velvetleaf [6, 18]: 50
- Crabgrass, Large plant response rating [7, 15]: 90
- Crabgrass, Large plant response rating [7, 16]: 90
- Plant response rating, Crabgrass, Large [7, 17]: 80
- Plant response rating, Crabgrass, Large [7, 18]: 100
- Plant response rating, Barnyardgrass [8, 13]: 30
- Plant response rating, Barnyardgrass [8, 14]: 70
- Plant response rating, Barnyardgrass ([8]; Flood, 31 g ai/ha): 0
- Plant response rating, Barnyardgrass ([8]; Flood, 62 g ai/ha): 0
- Wheat plant response rating [9, 15]: 10
- Wheat plant response rating [9, 16]: 30
- Plant response rating, Wheat [9, 19]: 0
- Plant response rating, Wheat [9, 18]: 20
- Foxtail, Giant plant response rating [10, 15]: 80
- Foxtail, Giant plant response rating [10, 16]: 90
- Plant response rating, Foxtail, Giant [10, 19]: 70
- Plant response rating, Foxtail, Giant [10, 18]: 100
- Plant response rating, Ducksalad [11, 13]: 30
- Plant response rating, Ducksalad [11, 14]: 70
- Plant response rating, Ducksalad ([11]; Flood, 31 g ai/ha): 0
- Plant response rating, Ducksalad ([11]; Flood, 62 g ai/ha): 0
- Barnyardgrass plant response rating [12, 15]: 30
- Barnyardgrass plant response rating [12, 16]: 80
- Plant response rating, Barnyardgrass [12, 17]: 10
- Plant response rating, Barnyardgrass [12, 18]: 60

Structure (SMILES): Cc1nn(-c2ccc(F)cc2)nc1Oc1ccnc(C(F)(F)F)n1 [Compound 101]
- Plant response rating, Rice [1, 13]: 15
- Plant response rating, Rice [1, 14]: 20
- Plant response rating, Rice ([1]; Flood, 31 g ai/ha): 0
- Plant response rating, Rice ([1]; Flood, 62 g ai/ha): 0
- Corn plant response rating [2, 15]: 10
- Corn plant response rating [2, 16]: 20
- Plant response rating, Corn [2, 17]: 0
- Plant response rating, Corn [2, 18]: 10
- Pigweed plant response rating [3, 15]: 80
- Pigweed plant response rating [3, 16]: 90
- Plant response rating, Pigweed [3, 19]: 100
- Plant response rating, Pigweed [3, 18]: 100
- Morningglory plant response rating [4, 15]: 40
- Morningglory plant response rating [4, 16]: 40
- Plant response rating, Morningglory [4, 19]: 0
- Plant response rating, Morningglory [4, 18]: 10
- Plant response rating, Sedge, Umbrella [5, 13]: 50
- Plant response rating, Sedge, Umbrella [5, 14]: 75
- Plant response rating, Sedge, Umbrella ([5]; Flood, 31 g ai/ha): 0
- Plant response rating, Sedge, Umbrella ([5]; Flood, 62 g ai/ha): 0
- Velvetleaf plant response rating [6, 15]: 10
- Velvetleaf plant response rating [6, 16]: 20
- Plant response rating, Velvetleaf [6, 19]: 0
- Plant response rating, Velvetleaf [6, 18]: 0
- Crabgrass, Large plant response rating [7, 15]: 70
- Crabgrass, Large plant response rating [7, 16]: 90
- Plant response rating, Crabgrass, Large [7, 17]: 100
- Plant response rating, Crabgrass, Large [7, 18]: 100
- Plant response rating, Barnyardgrass [8, 13]: 55
- Plant response rating, Barnyardgrass [8, 14]: 60
- Plant response rating, Barnyardgrass ([8]; Flood, 31 g ai/ha): 0
- Plant response rating, Barnyardgrass ([8]; Flood, 62 g ai/ha): 0
- Wheat plant response rating [9, 15]: 0
- Wheat plant response rating [9, 16]: 10
- Plant response rating, Wheat [9, 19]: 0
- Plant response rating, Wheat [9, 18]: 0
- Foxtail, Giant plant response rating [10, 15]: 70
- Foxtail, Giant plant response rating [10, 16]: 90
- Plant response rating, Foxtail, Giant [10, 19]: 100
- Plant response rating, Foxtail, Giant [10, 18]: 100
- Plant response rating, Ducksalad [11, 13]: 50
- Plant response rating, Ducksalad [11, 14]: 65
- Plant response rating, Ducksalad ([11]; Flood, 31 g ai/ha): 0
- Plant response rating, Ducksalad ([11]; Flood, 62 g ai/ha): 20
- Barnyardgrass plant response rating [12, 15]: 20
- Barnyardgrass plant response rating [12, 16]: 60
- Plant response rating, Barnyardgrass [12, 17]: 50
- Plant response rating, Barnyardgrass [12, 18]: 80

Structure (SMILES): Cc1nn(-c2ccc(C(F)(F)F)cn2)nc1C(=O)c1cccc(C(F)(F)F)c1 [Compound 107]
- Plant response rating, Rice [1, 13]: 0
- Plant response rating, Rice [1, 14]: 25
- Plant response rating, Rice ([1]; Flood, 31 g ai/ha): 0
- Plant response rating, Rice ([1]; Flood, 62 g ai/ha): 0
- Corn plant response rating [2, 15]: 20
- Corn plant response rating [2, 16]: 30
- Plant response rating, Corn [2, 17]: 0
- Plant response rating, Corn [2, 18]: 10
- Pigweed plant response rating [3, 15]: 90
- Pigweed plant response rating [3, 16]: 100
- Plant response rating, Pigweed [3, 19]: 70
- Plant response rating, Pigweed [3, 18]: 100
- Morningglory plant response rating [4, 15]: 70
- Morningglory plant response rating [4, 16]: 80
- Plant response rating, Morningglory [4, 19]: 20
- Plant response rating, Morningglory [4, 18]: 30
- Plant response rating, Sedge, Umbrella [5, 13]: 60
- Plant response rating, Sedge, Umbrella [5, 14]: 80
- Plant response rating, Sedge, Umbrella ([5]; Flood, 31 g ai/ha): 0
- Plant response rating, Sedge, Umbrella ([5]; Flood, 62 g ai/ha): 40
- Velvetleaf plant response rating [6, 15]: 40
- Velvetleaf plant response rating [6, 16]: 50
- Plant response rating, Velvetleaf [6, 19]: 10
- Plant response rating, Velvetleaf [6, 18]: 10
- Crabgrass, Large plant response rating [7, 15]: 60
- Crabgrass, Large plant response rating [7, 16]: 90
- Plant response rating, Crabgrass, Large [7, 17]: 100
- Plant response rating, Crabgrass, Large [7, 18]: 100
- Plant response rating, Barnyardgrass [8, 13]: 20
- Plant response rating, Barnyardgrass [8, 14]: 25
- Plant response rating, Barnyardgrass ([8]; Flood, 31 g ai/ha): 0
- Plant response rating, Barnyardgrass ([8]; Flood, 62 g ai/ha): 15
- Wheat plant response rating [9, 15]: 20
- Wheat plant response rating [9, 16]: 40
- Plant response rating, Wheat [9, 19]: 0
- Plant response rating, Wheat [9, 18]: 0
- Foxtail, Giant plant response rating [10, 15]: 40
- Foxtail, Giant plant response rating [10, 16]: 90
- Plant response rating, Foxtail, Giant [10, 19]: 90
- Plant response rating, Foxtail, Giant [10, 18]: 100
- Plant response rating, Ducksalad [11, 13]: 20
- Plant response rating, Ducksalad [11, 14]: 40
- Plant response rating, Ducksalad ([11]; Flood, 31 g ai/ha): 0
- Plant response rating, Ducksalad ([11]; Flood, 62 g ai/ha): 0
- Barnyardgrass plant response rating [12, 15]: 30
- Barnyardgrass plant response rating [12, 16]: 60
- Plant response rating, Barnyardgrass [12, 17]: 30
- Plant response rating, Barnyardgrass [12, 18]: 80

Structure (SMILES): Cc1nn(-c2ccc(C(F)(F)F)cn2)nc1Oc1cccc(C(F)(F)F)c1 [Compound 109]
- Plant response rating, Rice [1, 13]: 15
- Plant response rating, Rice [1, 14]: 25
- Plant response rating, Rice ([1]; Flood, 31 g ai/ha): 15
- Plant response rating, Rice ([1]; Flood, 62 g ai/ha): 15
- Corn plant response rating [2, 20]: 90
- Corn plant response rating [2, 21]: 40
- Pigweed plant response rating [3, 20]: 100
- Pigweed plant response rating [3, 21]: 100
- Morningglory plant response rating [4, 20]: 90
- Morningglory plant response rating [4, 21]: 50
- Plant response rating, Sedge, Umbrella [5, 13]: 85
- Plant response rating, Sedge, Umbrella [5, 14]: 85
- Plant response rating, Sedge, Umbrella ([5]; Flood, 31 g ai/ha): 38
- Plant response rating, Sedge, Umbrella ([5]; Flood, 62 g ai/ha): 63
- Velvetleaf plant response rating [6, 20]: 80
- Velvetleaf plant response rating [6, 21]: 30
- Crabgrass, Large plant response rating [7, 20]: 90
- Crabgrass, Large plant response rating [7, 21]: 100
- Plant response rating, Barnyardgrass [8, 13]: 40
- Plant response rating, Barnyardgrass [8, 14]: 75
- Plant response rating, Barnyardgrass ([8]; Flood, 31 g ai/ha): 0
- Plant response rating, Barnyardgrass ([8]; Flood, 62 g ai/ha): 20
- Wheat plant response rating [9, 20]: 50
- Wheat plant response rating [9, 21]: 20
- Foxtail, Giant plant response rating [10, 20]: 90
- Foxtail, Giant plant response rating [10, 21]: 100
- Plant response rating, Ducksalad [11, 13]: 60
- Plant response rating, Ducksalad [11, 14]: 80
- Plant response rating, Ducksalad ([11]; Flood, 31 g ai/ha): 0
- Plant response rating, Ducksalad ([11]; Flood, 62 g ai/ha): 20
- Barnyardgrass plant response rating [12, 20]: 90
- Barnyardgrass plant response rating [12, 21]: 100
